Test results taken from patent US20080051387A1, “TETRAHYDROPYRIDO[3,4-D]PYRIMIDINES AND RELATED ANALOGUES” (priority 2006, published 2008).

target: T1, chimeric human H3 receptor (Homo sapiens, UniProt Q9Y5N1); assay: Chimeric human H3 receptor screening GTP binding assay (inhibition of histamine-stimulated GTP-gamma35S binding, Example 8); type: biochemical; settings: 1 h; assay described in Example 8; symbol "!" in column headed Ki; read-out: Ki ("!": percent inhibition of agonist-induced GTP-gammaS binding to H3)
T1 construct: rat Galpha-i2 (Gnai2, rat); made in house; host or cells: Sf9 insect cells (baculovirus); P2 membranes
Outline: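 Compound tested at 4 μM against 1 μM histamine stimulation; 125 pM GTP-gamma35S binding measured by filtration and scintillation after 60 min at room temperature. Membranes from Sf9 cells expressing chimeric human H3 plus G-protein subunits, in Tris pH 7.4/NaCl/MgCl2/GDP buffer; values are % inhibition after nonspecific subtraction.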

T1 sequence (Q9Y5N1 with tags, fused parts or gaps): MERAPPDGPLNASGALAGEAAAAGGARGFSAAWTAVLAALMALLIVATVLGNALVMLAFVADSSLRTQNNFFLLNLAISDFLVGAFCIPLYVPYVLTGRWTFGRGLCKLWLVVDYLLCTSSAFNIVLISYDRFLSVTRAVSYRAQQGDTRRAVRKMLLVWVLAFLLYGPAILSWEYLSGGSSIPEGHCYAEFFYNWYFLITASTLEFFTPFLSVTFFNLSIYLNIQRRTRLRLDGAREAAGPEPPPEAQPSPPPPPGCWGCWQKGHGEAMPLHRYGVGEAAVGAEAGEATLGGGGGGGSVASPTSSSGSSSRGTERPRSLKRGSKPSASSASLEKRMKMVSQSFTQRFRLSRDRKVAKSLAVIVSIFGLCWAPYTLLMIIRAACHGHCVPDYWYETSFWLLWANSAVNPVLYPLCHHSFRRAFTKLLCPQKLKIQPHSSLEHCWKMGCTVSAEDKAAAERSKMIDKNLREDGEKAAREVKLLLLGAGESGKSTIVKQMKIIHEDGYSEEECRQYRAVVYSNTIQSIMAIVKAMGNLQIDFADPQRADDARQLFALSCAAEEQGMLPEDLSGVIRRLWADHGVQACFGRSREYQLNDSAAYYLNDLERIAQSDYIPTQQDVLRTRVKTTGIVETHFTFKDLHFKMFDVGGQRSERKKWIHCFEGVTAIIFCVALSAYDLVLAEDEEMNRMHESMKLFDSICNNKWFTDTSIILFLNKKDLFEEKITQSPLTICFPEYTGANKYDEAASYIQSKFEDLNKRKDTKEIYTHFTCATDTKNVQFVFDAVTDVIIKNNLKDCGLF

| SMILES | inhibition at 4 µM |
| --- | --- |
| O=C(c1csc(-c2cccnc2)n1)N1CCc2cnc(N3CCN(C4CCC4)CC3)nc2CC1 [Compound 529, 2-(4-cyclobutylpiperazin-1-yl)-7-[(2-pyridin-3-yl-1,3-thiazol-4-yl)carbonyl]-6,7,8,9-tetrahydro-5H-pyrimido[4,5-d]azepine] | ≥ 90% |
| COc1cc(OC)c(OC)cc1/C=C/C(=O)N1CCc2cnc(N3CCN(C4CCC4)CC3)nc2CC1 [Compound 575, 2-(4-cyclobutylpiperazin-1-yl)-7-[(2E)-3-(2,4,5-trimethoxyphenyl)prop-2-enoyl]-6,7,8,9-tetrahydro-5H-pyrimido[4,5-d]azepine] | ≥ 90% |
| CSc1ccc(C(=O)N2CCc3cnc(N4CCN(C5CCC5)CC4)nc3CC2)s1 [Compound 448, 2-(4-cyclobutylpiperazin-1-yl)-7-{[5-(methylthio)-2-thienyl]carbonyl}-6,7,8,9-tetrahydro-5H-pyrimido[4,5-d]azepine] | ≥ 90% |
| O=C(c1cccc(Cl)c1)N1CCc2cnc(N3CCN(C4CCC4)CC3)nc2CC1 [Compound 386, 7-(3-chlorobenzoyl)-2-(4-cyclobutylpiperazin-1-yl)-6,7,8,9-tetrahydro-5H-pyrimido[4,5-d]azepine] | ≥ 90% |
| O=C(c1sccc1Cl)N1CCc2cnc(N3CCN(C4CCC4)CC3)nc2CC1 [Compound 446, 7-[(3-chloro-2-thienyl)carbonyl]-2-(4-cyclobutylpiperazin-1-yl)-6,7,8,9-tetrahydro-5H-pyrimido[4,5-d]azepine] | ≥ 90% |
| CCCCn1c(C(=O)N2CCc3cnc(N4CCN(C5CCC5)CC4)nc3CC2)cc2ccccc21 [Compound 454, 7-[(1-butyl-1H-indol-2-yl)carbonyl]-2-(4-cyclobutylpiperazin-1-yl)-6,7,8,9-tetrahydro-5H-pyrimido[4,5-d]azepine] | ≥ 90% |
| Nc1ccccc1C(=O)N1CCc2cnc(N3CCN(C4CCC4)CC3)nc2CC1 [Compound 531, 2-{[2-(4-cyclobutylpiperazin-1-yl)-5,6,8,9-tetrahydro-7H-pyrimido[4,5-d]azepin-7-yl]carbonyl}aniline] | ≥ 90% |
| CCOc1ccccc1C(=O)N1CCc2cnc(N3CCN(C4CCC4)CC3)nc2CC1 [Compound 415, 2-(4-cyclobutylpiperazin-1-yl)-7-(2-ethoxybenzoyl)-6,7,8,9-tetrahydro-5H-pyrimido[4,5-d]azepine] | ≥ 90% |
| CCCCOc1ccccc1C(=O)N1CCc2cnc(N3CCN(C4CCC4)CC3)nc2CC1 [Compound 417, 7-(2-butoxybenzoyl)-2-(4-cyclobutylpiperazin-1-yl)-6,7,8,9-tetrahydro-5H-pyrimido[4,5-d]azepine] | ≥ 90% |
| Cc1cccc(/C=C/C(=O)N2CCc3cnc(N4CCN(C5CCC5)CC4)nc3CC2)c1 [Compound 563, 2-(4-cyclobutylpiperazin-1-yl)-7-[(2E)-3-(3-methylphenyl)prop-2-enoyl]-6,7,8,9-tetrahydro-5H-pyrimido[4,5-d]azepine] | ≥ 90% |
| O=C(c1ccccc1CCc1ccccc1)N1CCc2cnc(N3CCN(C4CCC4)CC3)nc2CC1 [Compound 411, 2-(4-cyclobutylpiperazin-1-yl)-7-[2-(2-phenylethyl)benzoyl]-6,7,8,9-tetrahydro-5H-pyrimido[4,5-d]azepine] | ≥ 90% |
| Cc1c(N)cccc1C(=O)N1CCc2cnc(N3CCN(C4CCC4)CC3)nc2CC1 [Compound 538, 3-{[2-(4-cyclobutylpiperazin-1-yl)-5,6,8,9-tetrahydro-7H-pyrimido[4,5-d]azepin-7-yl]carbonyl}-2-methylaniline] | ≥ 90% |
| O=C(c1cc(-c2ccccc2)nc2ccccc12)N1CCc2cnc(N3CCN(C4CCC4)CC3)nc2CC1 [Compound 488, 2-(4-cyclobutylpiperazin-1-yl)-7-[(2-phenylquinolin-4-yl)carbonyl]-6,7,8,9-tetrahydro-5H-pyrimido[4,5-d]azepine] | ≥ 90% |
| O=C(c1cccc2ccccc12)N1CCc2cnc(N3CCN(C4CCC4)CC3)nc2CC1 [Compound 404, 2-(4-cyclobutylpiperazin-1-yl)-7-(1-naphthoyl)-6,7,8,9-tetrahydro-5H-pyrimido[4,5-d]azepine] | ≥ 90% |

same assay, conditions: 1 h; assay of Example 8; symbol "!" in column headed Ki; read-out: percent inhibition of agonist-induced GTP-gammaS binding to H3

| SMILES | inhibition at 4 µM |
| --- | --- |
| CCCCC(=O)N1CCc2cnc(N3CCN(C4CCC4)CC3)nc2CC1 [Compound 207, 2-(4-cyclobutylpiperazin-1-yl)-7-pentanoyl-6,7,8,9-tetrahydro-5H-pyrimido[4,5-d]azepine] | ≥ 90% |
| O=C(Cc1c(Cl)cccc1Cl)N1CCc2cnc(N3CCN(C4CCC4)CC3)nc2CC1 [Compound 303, 2-(4-cyclobutylpiperazin-1-yl)-7-[(2,6-dichlorophenyl)acetyl]-6,7,8,9-tetrahydro-5H-pyrimido[4,5-d]azepine] | ≥ 90% |
| O=C(Cc1cccc(Br)c1)N1CCc2cnc(N3CCN(C4CCC4)CC3)nc2CC1 [Compound 289, 7-[(3-bromophenyl)acetyl]-2-(4-cyclobutylpiperazin-1-yl)-6,7,8,9-tetrahydro-5H-pyrimido[4,5-d]azepine] | ≥ 90% |
| Cc1ccc(C)c(C(=O)N2CCc3cnc(N4CCN(C5CCC5)CC4)nc3CC2)c1 [Compound 227, 2-(4-cyclobutylpiperazin-1-yl)-7-(2,5-dimethylbenzoyl)-6,7,8,9-tetrahydro-5H-pyrimido[4,5-d]azepine] | ≥ 90% |
| CCCC(=O)N1CCc2cnc(N3CCN(C4CCC4)CC3)nc2CC1 [Compound 206, 7-butyryl-2-(4-cyclobutylpiperazin-1-yl)-6,7,8,9-tetrahydro-5H-pyrimido[4,5-d]azepine] | ≥ 90% |
| CNC(=O)c1ccc(N2CCc3cnc(N4CCN(C5CCC5)CC4)nc3CC2)nc1 [Compound 186, 6-[2-(4-cyclobutylpiperazin-1-yl)-5,6,8,9-tetrahydro-7H-pyrimido[4,5-d]azepin-7-yl]-N-methylnicotinamide] | ≥ 90% |
| c1cc(N2CCOCC2)ncc1CN1CCc2cnc(N3CCN(C4CCC4)CC3)nc2CC1 [Compound 240, 2-(4-cyclobutylpiperazin-1-yl)-7-[(6-morpholin-4-ylpyridin-3-yl)methyl]-6,7,8,9-tetrahydro-5H-pyrimido[4,5-d]azepine] | ≥ 90% |
| c1ccc2nc(CN3CCc4cnc(N5CCN(C6CCC6)CC5)nc4CC3)ccc2c1 [Compound 259, 2-(4-cyclobutylpiperazin-1-yl)-7-(quinolin-2-ylmethyl)-6,7,8,9-tetrahydro-5H-pyrimido[4,5-d]azepine] | ≥ 90% |

same assay, conditions: symbol ! in Ki; test compound 4 μM, 1 μM histamine; read-out: percent inhibition of agonist-induced GTP-gammaS binding to H3

| SMILES | inhibition at 4 µM |
| --- | --- |
| CCCCN1CCc2ncnc(N3CCN(C4CCC4)CC3)c2CC1 [Compound 163, 7-butyl-4-(4-cyclobutylpiperazin-1-yl)-6,7,8,9-tetrahydro-5H-pyrimido[4,5-d]azepine] | ≥ 90% |
| c1nc(N2CCN(C3CCC3)CC2)nc2c1CN(CC1CCOC1)CC2 (stereo not shown) [Compound 636, 2-(4-cyclobutylpiperazin-1-yl)-6-(tetrahydrofuran-3-ylmethyl)-5,6,7,8-tetrahydropyrido[4,3-d]pyrimidine] | ≥ 90% |
| CC(C)C(C)N1CCc2c(ncnc2N2CCN(C3CCC3)CC2)C1 (stereo not shown) [Compound 121, 4-(4-cyclobutylpiperazin-1-yl)-7-(1,2-dimethylpropyl)-5,6,7,8-tetrahydropyrido[3,4-d]pyrimidine] | ≥ 90% |
| Cn1ccnc1CN1CCc2ncnc(N3CCN(C4CCC4)CC3)c2CC1 [Compound 150, 4-(4-cyclobutylpiperazin-1-yl)-7-[(1-methyl-1H-imidazol-2-yl)methyl]-6,7,8,9-tetrahydro-5H-pyrimido[4,5-d]azepine] | ≥ 90% |
| COc1ccc(OC)c(CN2CCc3ncnc(N4CCN(C5CCC5)CC4)c3CC2)c1 [Compound 176, 4-(4-cyclobutylpiperazin-1-yl)-7-(2,5-dimethoxybenzyl)-6,7,8,9-tetrahydro-5H-pyrimido[4,5-d]azepine] | ≥ 90% |
| c1cc(N2CCCC2)ncc1CN1CCc2nc(N3CCN(C4CCC4)CC3)ncc2C1 [Compound 643, 2-(4-cyclobutylpiperazin-1-yl)-6-[(6-pyrrolidin-1-ylpyridin-3-yl)methyl]-5,6,7,8-tetrahydropyrido[4,3-d]pyrimidine] | ≥ 90% |
| CCCC(C)CN1CCc2nc(N3CCN(C4CCC4)CC3)ncc2C1 (stereo not shown) [Compound 635, 2-(4-cyclobutylpiperazin-1-yl)-6-(2-methylpentyl)-5,6,7,8-tetrahydropyrido[4,3-d]pyrimidine] | ≥ 90% |
| Cc1cc(C(=O)N2CCc3c(ncnc3N3CCN(C4CCC4)CC3)C2)nn1C [Compound 39, 4-(4-cyclobutylpiperazin-1-yl)-7-[(1,5-dimethyl-1H-pyrazol-3-yl)carbonyl]-5,6,7,8-tetrahydropyrido[3,4-d]pyrimidine] | ≥ 90% |
| CC(C)c1ccc(CN2CCc3c(ncnc3N3CCN(C4CCC4)CC3)C2)cc1 [Compound 80] | ≥ 90% |
| CCC(=O)N1CCc2c(ncnc2N2CCN(C3CCC3)CC2)C1 [Compound 42, 4-(4-cyclobutylpiperazin-1-yl)-7-propionyl-5,6,7,8-tetrahydropyrido[3,4-d]pyrimidine] | ≥ 90% |
| c1cncc(CN2CCc3ncnc(N4CCN(C5CCC5)CC4)c3CC2)c1 [Compound 154, 4-(4-cyclobutylpiperazin-1-yl)-7-(pyridin-3-ylmethyl)-6,7,8,9-tetrahydro-5H-pyrimido[4,5-d]azepine] | ≥ 90% |

same assay, conditions: test compound 4 μM, 1 μM histamine; read-out: percent inhibition of agonist-induced GTP-gammaS binding to H3

| SMILES | inhibition at 4 µM |
| --- | --- |
| CC(=O)c1ccc(N2CCc3c(ncnc3N3CCN(C4CCC4)CC3)C2)cc1 [Compound 3, 1-{4-[4-(4-Cyclobutylpiperazin-1-yl)-5,8-dihydropyrido[3.4-d]pyrimidin-7(6H)-yl]phenyl}Ethanone] | ≥ 90% |
